# Assay results published in patent US20230286973A1, “PROTEIN SECRETION INHIBITORS” (KEZAR LIFE SCIENCES, priority 2020, published 2023).
# Legend:
# [1] = system: HER3-ss+4aa/Gaussia Luciferase; assay: Dox-Induced Her3-ss-Gluc Assay; format: cell-based; details: 24 hr Dox induction; 293FRT/TO cells; read-out: 24 hr Dox Inducible Her3(ss + 4)Gluc 293FRT/TO: Mean IC50
# In short: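 Flp-In 293 T-REx cells, stable HER3-ss+4aa/Gaussia luciferase insert, hygromycin/blasticidin selected; plated day before; compound in DMSO/media + doxycycline; 37° C., 5% CO2.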
# [2] = Liver Microsome Stability Assay (mouse); details: mouse liver microsomes, with NADPH, 1.0 uM compound
# Experimental: (§1) Stability of a compound was assessed in the presence of liver microsomes from various sources—mouse, rat, monkey and human liver microsomes. 1.0 uM compound, 0.4% DMSO in 0.1 M Potassium Phosphate with 1.0 mg/mL liver microsomes, were incubated at 37° C. with or without 1 mM NADPH. The samples were quenched at 0, and 30 minutes.
# [3] = system: PD1-ss+10aa/Gaussia Luciferase; assay: Dox-Induced PD1-ss-Gluc Assay; format: cell-based; details: 24 hr Dox induction; 293FRT/TO cells; read-out: 24 hr Dox Inducible PD1ssGluc 293FRT/TO: Mean IC50
# In short: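 Doxycycline-induced expression of a PD1-ss+10aa/Gaussia luciferase reporter is measured in stable Flp-In 293 T-REx cells. Compound dilutions containing doxycycline are added one day after plating and incubated at 37 °C, 5% CO2. Values for unassigned stereocentres refer to stereoisomer mixtures.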
# [4] = system: TNFα-FL/Gaussia Luciferase; assay: Dox Induced TNFα-FL-Gluc Assay; format: cell-based; details: for IC50: 24 hr Dox induction, 293FRT/TO cells, read-out: 24 hr Dox Inducible TNFaFLGluc 293FRT/TO: Mean IC50; for 24 hr Dox Inducible TNFaFLGluc 293FRT/TO: TNF/PD1: ratio of TNFaFLGluc IC50 to PD1ssGluc IC50
# In short: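 Cell line: stable Flp-In 293 T-REx, TNFα-FL(1-233)-Gaussia luciferase fusion, T-REx-inducible. Plated day -1; compounds in DMSO/media + doxycycline, 37 °C, 5% CO2. Undefined stereocentres = mixture tested.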
# [5] = system: multiple myeloma cell line NCI-H929; assay: H929 Cell Viability Assay; format: cell-based, human; details: Homo sapiens, NCI-H929, 48 h, NCI-H929 cells, Celltiter-Glo
# In short: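 Cells in RPMI 1640/10% FBS; compound dilutions in DMSO/media; 48 h, 37° C, 5% CO2; CellTiter-Glo luciferase readout for viability.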
# [6] = Liver Microsome Stability Assay (rat); details: rat liver microsomes, with NADPH, 1.0 uM compound
# Experimental: as §1
# [7] = system: multiple myeloma cell line U266B1; assay: U266 Cell Viability Assay; format: cell-based, human; details: Homo sapiens, U-266, 48 h, U266B1 cells, Celltiter-Glo
# In short: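 Luminescent ATP read-out (CellTiter-Glo) after 48 h compound exposure at 37° C., 5% CO2; cells maintained in RPMI 1640/10% FBS/2 mM glutamine/pen-strep, compounds diluted in DMSO/media.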
# [8] = system: IL-2-FL/Gaussia Luciferase; assay: Dox Induced IL2-FL-Gluc Assay; format: cell-based; details: for IC50: 24 hr Dox induction, 293FRT/TO cells, read-out: 24 hr Dox Inducible IL2FLGluc 293FRT/TO: Mean IC50; for 24 hr Dox Inducible IL2FLGluc 293FRT/TO: IL2/PD1: ratio of IL2FLGluc IC50 to PD1ssGluc IC50
# In short: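 Stable Flp-In 293 T-REx line, Tet-regulated IL-2 (aa 1-153)–Gaussia luciferase fusion; hygromycin/blasticidin selected. Plated day -1; compound + doxycycline added next day; 37° C, 5% CO2.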
# [9] = Liver Microsome Stability Assay (monkey); details: monkey liver microsomes, with NADPH, 1.0 uM compound
# Experimental: as §1
# [10] = Liver Microsome Stability Assay (human); details: human liver microsomes, with NADPH, 1.0 uM compound
# Experimental: as §1
SMILES,IC50 [1],Liver Microsome Stability (Multiple Species): Mouse - % Remaining after 30 min w/NADPH [2],IC50 [3],IC50 [4],24 hr Dox Inducible TNFaFLGluc 293FRT/TO: TNF/PD1 [4],EC50 [5],Liver Microsome Stability (Multiple Species): Rat - % Remaining after 30 min w/NADPH [6],EC50 [7],IC50 [8],24 hr Dox Inducible IL2FLGluc 293FRT/TO: IL2/PD1 [8],Liver Microsome Stability (Multiple Species): Monkey - % Remaining after 30 min w/NADPH [9],Liver Microsome Stability (Multiple Species): Human - % Remaining after 30 min w/NADPH [10]
"CC(=O)N1CCC(C(C)c2ccc(N3CCC[C@@H]3c3csc(NC(=O)c4cccn4Cc4ccnc(F)c4)n3)cc2)CC1 (stereo partly drawn) [Compound A161, N-(4-((2R)-1-(4-(1-(1-acetylpiperidin-4-yl)ethyl)phenyl)pyrrolidin-2-yl)thiazol-2-yl)-1-((2-fluoropyridin-4-yl)methyl)-1H-pyrrole-2-carboxamide]",406 nM,0.42%,284 nM,4000 nM,14.1,12400 nM,7.32%,> 25000 nM,640 nM,2.3,0.12%,1.04%
"O=C(Nc1nc(-c2cccc(-c3ccccn3)c2)cs1)c1cccn1Cc1ccnc(F)c1 [Compound A162, 1-((2-fluoropyridin-4-yl)methyl)-N-(4-(3-(pyridin-2-yl)phenyl)thiazol-2-yl)-1H-pyrrole-2-carboxamide]",1270 nM,7.13%,758 nM,> 25000 nM,>33.0,> 25000 nM,8.48%,> 25000 nM,1770 nM,2.4,0.25%,1.91%
"Cc1cc(C(=O)Nc2nc([C@H]3CCCN3c3ccc(NC(=O)N(C)C)cc3)cs2)n(Cc2ccnc(F)c2)c1 [Compound A163, (R)-N-(4-(1-(4-(3,3-dimethylureido)phenyl)pyrrolidin-2-yl)thiazol-2-yl)-1-((2-fluoropyridin-4-yl)methyl)-4-methyl-1H-pyrrole-2-carboxamide]",29.9 nM,36.3%,16.1 nM,328 nM,20.3,714 nM,50.2%,> 25000 nM,39.6 nM,2.5,44.9%,67.5%
"CC(=O)Nc1ccc(N2CCC[C@@H]2c2csc(NC(=O)c3cc(C)cn3Cc3ccnc(F)c3)n2)cc1 [Compound A164, (R)-N-(4-(1-(4-acetamidophenyl)pyrrolidin-2-yl)thiazol-2-yl)-1-((2-fluoropyridin-4-yl)methyl)-4-methyl-1H-pyrrole-2-carboxamide]",17.3 nM,18.8%,7.95 nM,148 nM,18.7,274 nM,19.4%,> 25000 nM,19.1 nM,2.4,32.3%,36.5%
"CC(=O)N1CCC(Oc2ccc(N3CCC[C@@H]3c3csc(NC(=O)c4cc(C)cn4Cc4ccnc(F)c4)n3)cc2)CC1 [Compound A165, (R)-N-(4-(1-(4-((1-acetylpiperidin-4-yl)oxy)phenyl)pyrrolidin-2-yl)thiazol-2-yl)-1-((2-fluoropyridin-4-yl)methyl)-4-methyl-1H-pyrrole-2-carboxamide]",53 nM,30.7%,29.8 nM,386 nM,13,867 nM,59.2%,> 25000 nM,45.2 nM,1.5,47.5%,42.1%
"Cc1cc(C(=O)Nc2nc([C@H]3CCCN3c3ccc(OC4CCN(C(N)=O)CC4)cc3)cs2)n(Cc2ccnc(F)c2)c1 [Compound A166, (R)-4-(4-(2-(2-(1-((2-fluoropyridin-4-yl)methyl)-4-methyl-1H-pyrrole-2-carboxamido)thiazol-4-yl)pyrrolidin-1-yl)phenoxy)piperidine-1-carboxamide]",93.7 nM,63.9%,52.8 nM,744 nM,14.1,2210 nM,78.7%,> 25000 nM,109 nM,2.1,72.2%,64.3%
"CC(C)n1cnc(-c2cccc(-c3csc(NC(=O)c4cccn4Cc4ccnc(F)c4)n3)c2)c1 [Compound A167, 1-((2-fluoropyridin-4-yl)methyl)-N-(4-(3-(1-isopropyl-1H-imidazol-4-yl)phenyl)thiazol-2-yl)-1H-pyrrole-2-carboxamide]",603 nM,12%,362 nM,> 25000 nM,>69.1,> 25000 nM,13%,> 25000 nM,1450 nM,4,0.15%,0.06%
"O=C(Nc1nc(-c2ccccc2-c2ccccn2)cs1)c1cccn1Cc1ccnc(F)c1 [Compound A168, 1-((2-fluoropyridin-4-yl)methyl)-N-(4-(2-(pyridin-2-yl)phenyl)thiazol-2-yl)-1H-pyrrole-2-carboxamide]",60.5 nM,0.09%,35 nM,569 nM,16.3,2710 nM,0.52%,> 25000 nM,53.7 nM,1.5,0.02%,0.45%
